Results: US20210051949A1, “SOLID AGROCHEMICAL COMPOSITIONS” (UPL LTD, priority 2018, published 2021)

How the values were obtained:
[1] = Comparative study of degradation of metsulfuron methyl in compositions with 2,4-D acid or 2,4-D sodium salt plus picloram (accelerated heat stability); format: physicochemical; settings: for Active content: picloram, metsulfuron methyl
Method: Degradation of Metsulfuron Methyl in Compositions with 2,4-D Acid and 2,4-D Sodium Salt: Comparative Study
A comparative study of degradation of metsulfuron methyl in composition of 2,4-D acid and 2,4-D sodium salt in combination with picloram was carried out. The results are summarized in the below table (Table 1):
The study was conducted at 0 days as well as after 14 days at 54° C. (accelerated heat stability conditions).

[2] = Physical parameters (active content, suspensibility, dispersibility, moisture, wet sieve) of a composition of 2,4-D acid, metsulfuron methyl and picloram acid; format: physicochemical; parameters: unit not given here
Source text: Physical Parameters of a Composition Comprising 2, 4-D Acid, Metsulfuron Methyl and Picloram Acid:
Physical parameters such as suspensibility, dispersibility has been tested for a composition prepared according to the present invention are listed in the below table (Table 2).
As evident from the Table 2, the physical parameters such as suspensibility and dispersibility of the compositions prepared according to the present invention satisfies the requirement for a stable formulation.

[3] = composition with 2,4-D acid, 0 days
[4] = composition with 2,4-D acid, 14 days at 54° C.
[5] = composition with 2,4-sodium salt, 0 days
[6] = composition with 2,4-sodium salt, 14 days at 54° C.

Row | SMILES | Active content [1, 3] [gm] | Active content [1, 4] [gm] | % degradation after 14 days [1, 4] [%] | Active content [1, 5] [gm] | Active content [1, 6] [gm] | % degradation after 14 days [1, 6] [%] | Active ingredient (content) ([2]; 14 Day AHS) | Suspensibility ([2]; 14 Day AHS) | Active ingredient (content) ([2]; Ambient) | Suspensibility ([2]; Ambient)
1 | O=C(O)COc1ccc(Cl)cc1Cl [2,4-D acid, 2,4-dichlorophenoxy acetic acid] | 333.03 | 325.01 | 2.41 | 325.28 | 328.01 | 0.84 | 319.6 | 99.10 | 320.5 | 99.96
2 | COC(=O)c1ccccc1S(=O)(=O)NC(=O)Nc1nc(C)nc(OC)n1 [Metsulfuron methyl] | 46.06 | 44.42 |  | 49.78 | 43.88 |  | 39.30 | 99.75 | 42.3 | 100.90
3 | Nc1c(Cl)c(Cl)nc(C(=O)O)c1Cl [Picloram acid, Picloram] | 98.96 | 98.05 | 0.92 | 95.65 | 95.59 | 0.06 | 105.5 | 99.61 | 106.5 | 100.50
